Results taken from US20040265265A1, “Odor control composition and process” (H&S CHEMICAL COMPANY, INC., priority 2001, published 2004).

Key:
[1] = stability of solutions as a function of pH; format: physicochemical; details: below a pH of 6
Excerpt: As is discussed above the pH range for CHT and CH-BENZ solutions for use in this invention can be from about 6- 14. […] While the solutions of this invention are effective above a pH of 10.0, solutions having a pH of 10.0 can only be used for industrial applications, due to their caustic nature.
This stability is important in domestic applications of this invention where long shelf life is very desirable.

[2] = limit of solubility in water; details: at room temperature in water

Row | SMILES | stability in acidic medium [1] | limit of solubility [2]
1 | O=C([O-])c1ccc(S(=O)(=O)NCl)cc1.[Na+] [CH-BENZ, N-Chloro-4-Carboxybenzenesulfonamide sodium salt] | tend to decompose | about 20%
2 | Cc1ccc(S(=O)(=O)[N-]Cl)cc1.[Na+] [CHT, Chloramine-T] | tend to decompose | about 15%
